Measured values reported in PubChem BioAssay (NCI).
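1) Cells in 96-well plates. 2) Compound, 48 h, 5 concentrations. 3) Linear interpolation between surrounding doses. 4) Unreached endpoint = highest concentration. GI50 marks 50% less growth. TGI marks complete inhibition of growth.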

Tests used:
Experiment in all cases: NCI-60 cell line screen, 48 h
NCI-H23 lung = tested on: NCI-H23 lung
SNB-19 CNS = tested on: SNB-19 CNS
HCT-15 colon = tested on: HCT-15 colon
SK-MEL-28 melanoma = tested on: SK-MEL-28 melanoma
K-562 leukemia = tested on: K-562 leukemia
SK-MEL-2 melanoma = tested on: SK-MEL-2 melanoma
SK-MEL-5 melanoma = tested on: SK-MEL-5 melanoma
LOX IMVI melanoma = tested on: LOX IMVI melanoma
UO-31 renal = tested on: UO-31 renal
OVCAR-4 ovarian = tested on: OVCAR-4 ovarian

Row | Compound | GI50 (NCI-H23 lung) [µM] | TGI (NCI-H23 lung) [µM] | GI50 (SNB-19 CNS) [µM] | TGI (SNB-19 CNS) [µM] | GI50 (HCT-15 colon) [µM] | TGI (HCT-15 colon) [µM] | GI50 (SK-MEL-28 melanoma) [µM] | TGI (SK-MEL-28 melanoma) [µM] | GI50 (K-562 leukemia) [µM] | TGI (K-562 leukemia) [µM] | GI50 (SK-MEL-2 melanoma) [µM] | TGI (SK-MEL-2 melanoma) [µM] | GI50 (SK-MEL-5 melanoma) [µM] | TGI (SK-MEL-5 melanoma) [µM] | GI50 (LOX IMVI melanoma) [µM] | TGI (LOX IMVI melanoma) [µM] | GI50 (UO-31 renal) [µM] | TGI (UO-31 renal) [µM] | GI50 (OVCAR-4 ovarian) [µM] | TGI (OVCAR-4 ovarian) [µM]
1 | COC(=O)C(C)N1C(=O)c2ccccc2I1OC(C)=O (stereo not given) | 40.3 | > 100 | > 100 | > 100 | 37.9 | > 100 | 88 | > 100 | 41.6 | > 100 | > 100 | > 100 | > 100 | > 100 | 16.1 | 34.8 | 54.2 | > 100 | 51.3 | > 100
2 | CCOC(=O)C1C(c2cc(OC)c(O)c(OC)c2)c2cc3c(cc2OC1(C)O)OCO3 (stereo not given) |  | > 100 |  | > 100 |  | > 100 |  | > 100 |  | > 100 |  | > 100 |  | > 100 |  | > 100 |  | > 100 |  | > 100
3 | Cc1cc(NS(=O)(=O)c2ccc(Nc3c4ccccc4nc4c(C(=O)NCCN(C)C)ccc(Cl)c34)cc2)no1 |  | 16.1 |  | 9.68 |  | 19.5 |  | 16.1 |  | 21.2 |  | 19.7 |  | 10.1 |  | 10.9 |  | 7.84 |  | 17.6
